From patent US20120238511A1, “2-DEOXY-D-GLUCOSE FORMULATIONS FOR PREVENTION OR TREATMENT OF NEURODEGENERATIVE DISEASES” (University of Southern California, priority 2011, published 2012)

Test system: triple transgenic AD (3×Tg-AD) mouse model
Assay: 2-DG diet in triple transgenic Alzheimer's mouse model
Type: in vivo
Details: low-density gene array (LDA array) analyses
Protocol: It has been shown that mitochondrial bioenergetic deficits precede Alzheimer's disease (AD) pathology in the triple transgenic AD (3×Tg-AD) mouse model. […] In the current study, the impact of 2-deoxy-D-glucose (2-DG), a compound known to regulate glucose metabolism and induce ketogenesis, on both brain bioenergetics and AD pathology was evaluated.
3×Tg-AD female at 6 month were fed with either a regular diet (AIN-93G) or diet containing 0.04% 2-DG for 7 weeks.

For `OCC1OC(O)CC(O)C1O` [2-DG, 2-deoxy-D-glucose], the Tau phosphorylation was “reduced” and the amyloid production was “decreased”.
